Results from patent publication US7414077B2, “Therapeutic intervention to mimic the effect of caloric restriction” (priority 1999, dated 2008).

Experiments:
5′ deiodinase [1] = test: effect of in vitro free fatty acids on 5′ deiodinase activity (thyroid hormone synthesis in vitro); assay type: biochemical; details: 1 mM free fatty acid; as a function of substrate concentration
Description: (§1) Reaction velocities were measured under control conditions (▴) and in the presence of 1 mM free fatty acids palmitic acid (●) and oleic acid (▪). Each point on the curve represents the mean of triplicate determinations. Lineweaver-Burk plots described lines characterized by r^2 from 0.988-0.999.

5′ deiodinase [2] = test: 5′ deiodinase activity as a function of substrate concentration (Lineweaver-Burk), control conditions; assay type: biochemical; details: in vitro, without free fatty acids, mean of triplicate determinations, Lineweaver-Burk plot, FIG. 2A
Description: as §1

| Structure (SMILES) | effect on thyroid hormone synthesis in vitro (5′ deiodinase activity) (5′ deiodinase [1]) | Km (5′ deiodinase [2]) |
| --- | --- | --- |
| CCCCCCCC/C=C\CCCCCCCC(=O)O [oleic acid] | inhibit thyroid hormone synthesis in vitro |  |
| CCCCCCCCCCCCCCCC(=O)O [palmitic acid] | inhibit thyroid hormone synthesis in vitro |  |
| N[C@@H](Cc1ccc(Oc2cc(I)c(O)c(I)c2)c(I)c1)C(=O)O [rT3] |  | 2.38 µM |
